Experimental findings from patent US20220220135A1 (BAR-ILAN UNIVERSITY, priority 2019, published 2022) are described below.

One data set deals with T1, NTPDase1 (Homo sapiens, UniProt P49961).
T1 sequence (P49961 1-510): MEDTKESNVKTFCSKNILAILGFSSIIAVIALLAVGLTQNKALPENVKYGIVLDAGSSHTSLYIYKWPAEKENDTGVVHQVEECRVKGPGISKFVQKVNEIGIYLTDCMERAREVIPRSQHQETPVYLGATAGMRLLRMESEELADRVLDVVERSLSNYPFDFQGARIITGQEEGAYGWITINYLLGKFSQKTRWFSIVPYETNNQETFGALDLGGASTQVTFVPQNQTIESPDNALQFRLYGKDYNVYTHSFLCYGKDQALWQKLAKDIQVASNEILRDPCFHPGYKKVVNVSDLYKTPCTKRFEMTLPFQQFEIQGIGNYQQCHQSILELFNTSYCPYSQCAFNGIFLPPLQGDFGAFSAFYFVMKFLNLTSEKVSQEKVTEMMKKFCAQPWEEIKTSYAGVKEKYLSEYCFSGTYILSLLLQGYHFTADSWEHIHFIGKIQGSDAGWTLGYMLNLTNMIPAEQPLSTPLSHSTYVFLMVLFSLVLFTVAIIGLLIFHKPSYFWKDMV
Put plainly: Inhibition of ATPase activity of human NTPDase1. It counts as biochemical. To be noted: analogue at 100 μM; ATP 100 μM as substrate. As to the method:
(§1) FIG. 2: Inhibition of NTPDases and NPPs by analogues 9-12 using as substrates ATP (100 μM) for NTPDase1,2,3,8 and pNP-TMP (100 μM) for NPP1,3 (Panel A); and ATP (100 μM) was used as the substrate for NPP1 (Panel B);
(§2) At least 2 independent experiments were performed. In panel A, the activity with 100 μM ATP was set as 100%, which was 287±31, 395±67, 278±22, 119±26 nmol of Pi·min−1·mg of protein−1 for human NTPDase1, -2, -3 and -8, respectively, and the activity with 100 μM pNP-TMP was set as 100% which was 67±5, 21±1 nmol of p-nitrophenol·min−1·mg of protein−1 for human NPP1 and NPP3, respectively. In panel B, the activity with 100 μM ATP was set as 100% which was 34±7 nmol of PPi·min−1·mg of protein−1 for NPP1.

Data set [1] can be described thus: Chemical stability under acidic and basic conditions by 31P-NMR.
Excerpt: To evaluate the chemical stability of uridine-5′-Pα,α-dithiophosphate analogues, we measured by 31P-NMR the time-dependent percentage of the analogues remaining under basic and acidic conditions, and due to air-oxidation.
Data set [2] has as its target T2, human NPP3 (Homo sapiens, UniProt O14638).
T2 sequence (O14638 1-875): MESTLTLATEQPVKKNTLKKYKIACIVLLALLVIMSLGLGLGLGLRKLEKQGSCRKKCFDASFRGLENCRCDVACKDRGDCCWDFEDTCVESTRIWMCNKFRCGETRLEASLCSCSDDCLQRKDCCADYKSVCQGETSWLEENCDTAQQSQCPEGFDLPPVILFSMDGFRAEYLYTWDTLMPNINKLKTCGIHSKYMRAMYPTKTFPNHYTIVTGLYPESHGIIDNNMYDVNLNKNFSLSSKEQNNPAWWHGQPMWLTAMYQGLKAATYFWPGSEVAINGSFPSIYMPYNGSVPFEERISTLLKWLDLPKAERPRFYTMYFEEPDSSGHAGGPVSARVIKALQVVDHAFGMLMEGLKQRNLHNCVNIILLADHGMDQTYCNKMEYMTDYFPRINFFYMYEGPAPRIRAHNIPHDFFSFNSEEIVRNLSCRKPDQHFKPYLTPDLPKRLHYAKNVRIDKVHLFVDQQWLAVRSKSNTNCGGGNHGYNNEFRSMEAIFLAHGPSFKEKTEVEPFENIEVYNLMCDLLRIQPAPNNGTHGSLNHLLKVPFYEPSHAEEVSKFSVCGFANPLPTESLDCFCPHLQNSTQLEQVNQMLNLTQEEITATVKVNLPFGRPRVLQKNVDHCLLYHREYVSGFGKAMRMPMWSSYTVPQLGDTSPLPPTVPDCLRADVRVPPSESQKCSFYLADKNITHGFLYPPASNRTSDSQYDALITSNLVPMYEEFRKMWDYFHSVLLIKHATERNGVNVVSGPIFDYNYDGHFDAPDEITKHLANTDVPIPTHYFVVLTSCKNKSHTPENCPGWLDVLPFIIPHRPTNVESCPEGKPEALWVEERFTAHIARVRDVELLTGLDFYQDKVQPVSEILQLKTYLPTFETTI
In words: Inhibition of human NPP3, pNP-TMP as substrate (analogues 9-12). The conditions noted are these: analogue at 100 μM; pNP-TMP 100 μM as substrate. It counts as biochemical. The method, then:
as §1, §2

Data set [3] deals with T2, human NPP3. In words: Inhibition of human NPP3, 100 μM p-Nph-5′-TMP as substrate (Tables 5, 7). It counts as biochemical. The conditions noted are these: 100 μM p-Nph-5′-TMP as a substrate; n = 3.
The next data set deals with T3, human P2Y2R (Homo sapiens, UniProt P41231).
T3 construct: expressed in transfected cells; host or cells: 1321N1 astrocytoma cells
T3 sequence (P41231 whole entry): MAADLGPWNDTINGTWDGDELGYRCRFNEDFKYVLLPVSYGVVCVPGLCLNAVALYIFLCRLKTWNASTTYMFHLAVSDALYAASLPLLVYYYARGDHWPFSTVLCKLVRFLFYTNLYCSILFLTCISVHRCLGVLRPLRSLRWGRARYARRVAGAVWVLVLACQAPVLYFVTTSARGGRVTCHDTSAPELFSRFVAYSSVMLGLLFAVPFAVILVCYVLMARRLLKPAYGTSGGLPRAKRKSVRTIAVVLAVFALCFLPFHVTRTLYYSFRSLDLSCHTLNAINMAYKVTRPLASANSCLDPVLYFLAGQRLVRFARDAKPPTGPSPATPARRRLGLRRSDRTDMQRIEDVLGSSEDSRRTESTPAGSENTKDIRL
Put plainly: Calcium mobilization in 1321N1 astrocytoma cells expressing human P2Y2R. It is filed as cell-based. As to the method: Given the structural resemblance of 106-109 to the natural ligands of P2Y receptors, adenine and uracil nucleotides as natural substrates, were assessed for agonist potency on the human P2Y1, P2Y2, P2Y4, and P2Y6 receptor. To evaluate NPP1 selectivity of analogs 106-109, they were tested for their ability to activate of the uridine-nucleotide sensitive human recombinant P2Y1,2,4,6-receptors. The agonist potencies of this series of nucleotide analogues on the Gq protein-coupled human P2Y1R, P2Y2R, P2Y4R, and P2Y6R was determined by assessing its ability to induce calcium mobilization in stably transfected 1321N1 astrocytoma cells (Table 8). The nucleotide analogues were found in calcium mobilization assays to activate the P2Y2R with mid-micromolar potency.
(In general: A change in cytosolic calcium serves as a functional read-out for many receptors and channels.)

Structures are written as SMILES.

Broadly, the inhibition is the percentage by which the read-out fell short of the control. The low end stands for little suppression, the high end for strong suppression.

`O=c1ccn([C@@H]2O[C@H](COP(=S)(S)OP(=O)(O)OP(=O)(O)O)[C@@H](O)[C@H]2O)c(=O)[nH]1` (some centres unmarked) [Analogue 10]: the “inhibition of human NTPDase1” value on NTPDase1 is listed as “no inhibition”. In data set [1] (basic, pD 12.1, after 25 days), this molecule returned a decomposition of 24%. Besides, the “decomposition of starting material” value in data set [1] (pD 2.1 (pH 1.7), RT, 23 days) came out at 15%. In addition, the “inhibition of human NPP3” value against human NPP3 [2] is “no inhibition”.

Regarding `O=c1ccn([C@@H]2O[C@H](COP(=S)(S)OP(=O)(O)CP(=O)(O)O)[C@@H](O)[C@H]2O)c(=O)[nH]1` (some centres unmarked) [Analogue 11], at NTPDase1, the “inhibition of human NTPDase1” value is “negligible effects”. Moreover, the decomposition in data set [1] (basic, pD 12.1, after 25 days) is 23%; in data set [1] (pD 2.1, after 25 days), 6%. Moreover, 100 µM produced 21% inhibition against human NPP3 [2].

With `O=c1ccn([C@@H]2O[C@H](COP(=S)(S)OP(=O)(O)OP(=O)(O)OP(=S)(S)OC[C@H]3O[C@@H](n4ccc(=O)[nH]c4=O)[C@H](O)[C@@H]3O)[C@@H](O)[C@H]2O)c(=O)[nH]1` (some centres unmarked) [Analogue 12], the “inhibition of human NTPDase1” value at NTPDase1 is listed as “selective to NPP1”. This molecule also registered a loss of compound in data set [1] (basic, pD 12.6, after 16 days) of 13%. For the same molecule, the decomposition in data set [1] (pD 1.8 (pH 1.4), 16 days, RT) came to 6%. Moreover, at human NPP3 [2], the inhibition at 100 µM is 27%.

For the molecule `Nc1ncnc2c1ncn2COCCOP(=S)(S)OP(=O)(O)O` (centres unmarked) [compound 106], the “% inhibition ± SEM, human NPP3” value on human NPP3 [3] is “n.i.d”. Besides, the “% activation at 10 μM, P2Y2” value on human P2Y2R is 32 ± 18%.
